By EC50 is commonly meant the concentration at which the effect is half-maximal. A low value points to higher potency in that assay. By IC50 is commonly meant the concentration needed to halve the response being measured. One may read the AUC(0-t) as exposure summed from dosing to a finite time, without extrapolation to infinity. The bioavailability is the share of a dose that reaches the circulation, judged against a reference dose that is usually intravenous. Lower therefore signals poor availability. One may read the Cmax as the maximum level reached in the sampled fluid or tissue. The term half-life denotes the time needed for the level to fall by half in the phase considered. As a reminder, the AUC is concentration integrated over time. Low readings indicate low exposure, high ones high exposure.

Structures are written as SMILES.

The results in this text go back to ChEMBL document CHEMBL6071182, “Design, Biological Characterization, and Discovery of Novel Cyclohexenyl Derivatives as Kinesin KIF18A Inhibitors for the Treatment of Ovarian Cancer” (ACS Med Chem Lett, 2024).

Series [1] can be described thus: cells. The settings on record: Homo sapiens, OVCAR-3, 96 h.
Description: Antiproliferative activity against KIF18A siRNA sensitive human OVCAR-3 cells assessed as decrease in nuclei number measured after 4 days incubation by Hoechst 33342 DNA dye based nuclear count assay (NCA)
Series [2] has as its target T1, Kinesin-like protein KIF18A (Homo sapiens, UniProt Q8NI77).
T1 sequence (Q8NI77 whole entry): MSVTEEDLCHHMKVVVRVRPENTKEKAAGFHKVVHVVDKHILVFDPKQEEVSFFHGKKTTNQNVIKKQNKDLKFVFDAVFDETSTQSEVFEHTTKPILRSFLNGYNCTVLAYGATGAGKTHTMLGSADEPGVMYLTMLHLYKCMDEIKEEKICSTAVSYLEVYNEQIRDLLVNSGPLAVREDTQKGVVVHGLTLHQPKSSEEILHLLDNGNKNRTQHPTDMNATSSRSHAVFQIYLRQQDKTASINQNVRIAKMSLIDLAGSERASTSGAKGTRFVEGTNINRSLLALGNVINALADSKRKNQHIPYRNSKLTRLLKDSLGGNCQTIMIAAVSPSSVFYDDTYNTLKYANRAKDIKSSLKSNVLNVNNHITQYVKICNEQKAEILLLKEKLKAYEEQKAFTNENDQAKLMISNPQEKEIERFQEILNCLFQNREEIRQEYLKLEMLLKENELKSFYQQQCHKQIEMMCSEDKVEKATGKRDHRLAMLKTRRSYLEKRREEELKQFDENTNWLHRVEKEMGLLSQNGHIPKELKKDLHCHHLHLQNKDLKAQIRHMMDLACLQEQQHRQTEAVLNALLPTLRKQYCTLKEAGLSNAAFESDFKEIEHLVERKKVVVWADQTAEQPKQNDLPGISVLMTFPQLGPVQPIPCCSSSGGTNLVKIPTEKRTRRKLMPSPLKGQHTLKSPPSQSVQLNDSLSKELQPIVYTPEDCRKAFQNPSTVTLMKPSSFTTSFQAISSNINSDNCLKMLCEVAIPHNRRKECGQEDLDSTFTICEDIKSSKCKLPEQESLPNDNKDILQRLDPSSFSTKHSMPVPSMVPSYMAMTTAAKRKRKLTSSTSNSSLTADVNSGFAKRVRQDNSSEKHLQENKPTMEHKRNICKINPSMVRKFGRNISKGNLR
The series is described as follows: Inhibition of human recombinant KIF18A (1 to 436) by ADP-Glo motor assay.

Series [3] can be described thus: AUClast in Sprague-Dawley rat at 2 mg/kg, po and 1 mg/kg, iv. The format is ADME, organism-based. The settings on record: in vivo.
The nature of series [4]: Oral bioavailability in Sprague-Dawley rat at 2 mg/kg. Format: ADME, organism-based. As to conditions: in vivo.
Series [5] is described as follows: Cmax in Sprague-Dawley rat at 2 mg/kg, po and 1 mg/kg, iv. Format: ADME, organism-based. The settings on record: in vivo.
Series [6] in a line: Half life in Sprague-Dawley rat at 2 mg/kg, po and 1 mg/kg, iv. Format: ADME, organism-based. As to conditions: in vivo.
For series [7], the target named is T1, Kinesin-like protein KIF18A. Put plainly: Inhibition of human recombinant KIF18A (1 to 374) assessed as luminescence measured after 70 mins by ADP-Glo motor assay. (In general: ADP-Glo turns the ADP formed in a reaction into a luminescent signal.)
The nature of series [8]: Half life in Balb/c mouse at 30 mg/kg, po. Format: ADME, organism-based. As to conditions: in vivo.
Series [9] has as its system BXPC-3. The series is described as follows: Antiproliferative activity against human BxPC-3 cells assessed as chemiluminescence measured after 4 days incubation by Celltiter Glo assay. The settings on record: BXPC-3, 96 h. In general terms: In ATP-based viability assays light output follows the ATP content of the culture.
Series [10] is described as follows: Cmax in Balb/c mouse at 30 mg/kg, po. Format: ADME, organism-based. The settings on record: in vivo.
The test system of series [11] is NCI-N87. Put plainly: Antiproliferative activity against human NCI-N87 cells assessed as chemiluminescence measured after 4 days incubation by Celltiter Glo assay. As to conditions: NCI-N87, 96 h.
Series [12] has as its system NUGC-3. The series is described as follows: Antiproliferative activity against human NUGC-3 cells assessed as chemiluminescence measured after 4 days incubation by Celltiter Glo assay. As to conditions: NUGC-3, 96 h.
Series [13] is described as follows: AUC in Balb/c mouse at 30 mg/kg, po. The settings on record: in vivo. The format is ADME, organism-based.
Series [14] addresses T2, Kinesin-like protein KIF11 (Homo sapiens, UniProt P52732).
T2 sequence (P52732 whole entry): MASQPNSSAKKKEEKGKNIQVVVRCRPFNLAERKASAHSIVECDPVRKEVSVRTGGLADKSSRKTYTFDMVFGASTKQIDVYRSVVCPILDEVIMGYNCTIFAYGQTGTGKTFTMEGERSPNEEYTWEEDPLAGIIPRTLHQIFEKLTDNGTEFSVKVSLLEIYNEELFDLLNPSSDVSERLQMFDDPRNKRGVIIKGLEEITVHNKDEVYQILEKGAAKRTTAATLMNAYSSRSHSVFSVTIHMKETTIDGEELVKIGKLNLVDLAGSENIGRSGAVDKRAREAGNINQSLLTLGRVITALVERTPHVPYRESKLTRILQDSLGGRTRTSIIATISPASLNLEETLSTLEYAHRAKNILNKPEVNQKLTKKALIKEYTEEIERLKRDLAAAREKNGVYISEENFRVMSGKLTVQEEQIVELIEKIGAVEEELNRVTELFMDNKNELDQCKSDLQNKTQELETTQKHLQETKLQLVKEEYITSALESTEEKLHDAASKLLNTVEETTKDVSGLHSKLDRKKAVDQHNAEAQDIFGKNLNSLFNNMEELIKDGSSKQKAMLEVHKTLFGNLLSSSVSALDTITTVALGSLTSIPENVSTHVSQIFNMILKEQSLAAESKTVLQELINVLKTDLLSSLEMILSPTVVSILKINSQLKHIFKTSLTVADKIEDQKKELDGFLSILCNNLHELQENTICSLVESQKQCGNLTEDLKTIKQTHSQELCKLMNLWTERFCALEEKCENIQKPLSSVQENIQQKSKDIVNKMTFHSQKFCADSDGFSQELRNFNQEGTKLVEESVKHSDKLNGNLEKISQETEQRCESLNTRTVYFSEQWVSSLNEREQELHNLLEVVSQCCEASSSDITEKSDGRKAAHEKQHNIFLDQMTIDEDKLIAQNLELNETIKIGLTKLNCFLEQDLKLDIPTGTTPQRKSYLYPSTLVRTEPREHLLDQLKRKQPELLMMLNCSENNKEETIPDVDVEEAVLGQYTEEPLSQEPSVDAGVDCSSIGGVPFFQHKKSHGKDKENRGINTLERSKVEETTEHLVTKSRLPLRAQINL
The series is described as follows: Inhibition of EG5 (unknown origin) assessed as luminescence measured after 135 mins by ADP-Glo motor assay.

In series [1], `Cc1cc(NC(=O)c2ccc(NS(=O)(=O)CCO)cc2C2=CCC3(CC2)CC3)nc(N2CC3CC3C2)n1` (configuration not stated) returned an EC50 of 743 nM. This lies in the sub-micromolar range.

`O=C(Nc1ccnc(N2CCC(F)(F)CC2)c1)c1ccc(NS(=O)(=O)CCO)cc1C1=CCC2(CC1)CC2` returned an EC50 in series [1] of 1630 nM. This EC50 is about 2.2-fold higher than that of the compound before.

Consider `Cc1cc(NC(=O)c2ccc(NS(=O)(=O)CCO)cc2C2CCC3(CC2)CC3)nc(N2CCC(F)(F)CC2)n1`, for which, in [1], the response was half-maximal at 1360 nM (EC50).

As for `C[C@H]1CN(c2cccc(NC(=O)c3ccc(NS(=O)(=O)CCO)cc3N3CCC4(CC3)CC4)n2)CCO1`, the IC50 in [2] was 62 nM.

For `Cc1cc(NC(=O)c2ccc(NS(=O)(=O)CCO)cc2-c2cnn(C)c2)nc(N2CCC(F)(F)CC2)n1`, the EC50 in series [1] is over 10000 nM.

Take `Cc1cc(NC(=O)c2ccc(NS(=O)(=O)CCO)cc2C2=CCN(C)CC2)nc(N2CCC(F)(F)CC2)n1`: the EC50 in [1] is over 10000 nM.

In turn, `O=C(Nc1cncc(N2CCC(F)(F)CC2)n1)c1ccc(NS(=O)(=O)CCO)cc1C1=CCC2(CC1)CC2` gave an AUC(0-t) in series [3] of 322 ng·h/mL. The same compound had a bioavailability in [4] of 22.9%. Further, the Cmax in series [5] came to 140 ng/mL. This compound showed a half-life in series [6] of 1.2 h. In [1], this compound yielded an EC50 of 16.5 nM.

As to `Cc1cc(NC(=O)c2ccc(NS(=O)(=O)CCO)cc2C2=CCC3(CC2)CC3)cc(N2CCC(F)(F)CC2)c1`, the IC50 entry in series [7] was “Not Active”. This compound returned an EC50 in series [1] of 308 nM.

`O=C(Nc1cccc(N2CCC(F)(F)CC2)c1)c1ccc(NS(=O)(=O)CCO)cc1C1=CCC2(CC1)CC2`: in [7], the IC50 result is recorded as “Not Active”. In series [1], this compound showed an EC50 of 337 nM.

Compound `Cc1cc(NC(=O)c2ccc(NS(=O)(=O)CCO)cc2NC2CCCCC2)nc(N2CCC(F)(F)CC2)n1` yielded an EC50 in [1] of over 10000 nM.

In series [1], `Cc1cc(NC(=O)c2ccc(NS(=O)(=O)CCO)cc2C2=CCC3(CC2)CC3)nc(N2CCCC2)n1` gave an EC50 of 577 nM.

`Cc1cc(NC(=O)c2ccc(NS(=O)(=O)CCO)cc2N2C3CCC2CC2(CC2)C3)nc(N2CCC(F)(F)CC2)n1` showed an EC50 in [1] of 465 nM. This EC50 and that of the compound before are within 1.5-fold of each other.

Consider `O=C(Nc1cccc(N2CCC(F)(F)CC2)n1)c1ccc(NS(=O)(=O)CCO)cc1C1=CCC2(CC1)CC2`, for which the AUC(0-t) in series [3] is 1340 ng·h/mL. In series [4], this compound yielded a bioavailability of 40.4%. In series [5], this compound came in with a Cmax of 285 ng/mL. The compound also gave a half-life in [6] of 2.2 h. Besides, the midpoint of the response in series [1], the EC50, lay at 18.2 nM.

Regarding `Cc1cc(NC(=O)c2ccc(NS(=O)(=O)CCO)cc2N2CCC3(CC2)CC3)nc(N2CCC(F)(F)CC2)n1` [AMG-650], the half-life in series [8] is 7.98 h. Besides, the figures for the IC50 in series [9], in [11] and in series [12] were 7450 nM, 7490 nM and 111 nM, respectively. Also, the Cmax in series [10] came out at 7040 ng/mL. Besides, the AUC in series [13] came out at 110000 ng·h/mL. For the same compound, the EC50 in series [1] is 72.7 nM.

Take `Cc1cc(NC(=O)c2ccc(NS(=O)(=O)CCO)cc2C2=CCC3(CC2)CC3)nc(N2CCC(F)(F)CC2)n1`: in series [14], the IC50 was over 30000 nM. Also, the AUC(0-t) in [3] came out at 1610 ng·h/mL. This compound also gave a bioavailability in series [4] of 69.5%. For the same compound, the Cmax in series [5] was 158 ng/mL. Also, in [6], the half-life is 4.2 h. This compound also came in with an EC50 in series [1] of 70.8 nM.

As to `Cc1cc(NC(=O)c2ccc(NS(=O)(=O)CCO)cc2N2CC3CC3C2)nc(N2CCC(F)(F)CC2)n1` (configuration not stated), in series [1], it took 2090 nM to reach a half-maximal effect (EC50).

In turn, `Cc1cc(NC(=O)c2ccc(NS(=O)(=O)CCO)cc2C2=CCC3(CC2)CC3)nc(N2CC(F)(F)C2)n1` returned a 50% effective concentration (EC50) in [1] of 138 nM.

As for `Cc1cc(NC(=O)c2ccc(NS(=O)(=O)[C@H](C)CO)cc2N2CCC3(CC2)CC3)nc(N2CCC(F)(F)CC2)n1`, in series [2], the IC50 amounted to 71 nM.

In series [3], `O=C(Nc1ccc(F)c(N2CCC(F)(F)CC2)n1)c1ccc(NS(=O)(=O)CCO)cc1C1=CCC2(CC1)CC2` yielded an AUC(0-t) of 3400 ng·h/mL. Besides, the bioavailability in series [4] came out at 67.9%. The concentration in series [5] peaked (Cmax) at 424 ng/mL. Also, the half-life in series [6] is 4.7 h. The compound also registered an EC50 in [1] of 40.5 nM.

In [1], `O=C(Nc1ccnc(N2CCC(F)(F)CC2)c1F)c1ccc(NS(=O)(=O)CCO)cc1C1=CCC2(CC1)CC2` came in with an EC50 of 206 nM.

In series [1], `Cc1cc(NC(=O)c2ccc(NS(=O)(=O)CCO)cc2C2=CCC3(CC2)CC3)nc(C2CCC(F)(F)CC2)n1` came in with an EC50 of 186 nM.

For `Cc1cc(NC(=O)c2ccc(NS(=O)(=O)CCO)cc2N2C3CCCC2CC3)nc(N2CCC(F)(F)CC2)n1`, the EC50 in series [1] was 665 nM. This EC50 is about 3.6-fold higher than that of the compound before.
